# Measured values from patent US20160228056A1, “DYNAMIC POSITRON EMISSION TOMOGRAPHY IMAGING” (THE GENERAL HOSPITAL CORPORATION, priority 2013, published 2016).
# “Also recorded” adds a separate entry of the source.
# Columns and labels:
# [1] = blood radioactivity during the FDG infusion protocol; type: in vivo, human; conditions: constant infusion
# Protocol: FDG was administered in saline intravenously at a constant infusion rate of 0.01 ml/s for 90 minutes to healthy subjects (1 female/2 males, mean age 32±2) using a Medrad® Spectra Solaris syringe pump. In a separate experiment, FDG was administered as a traditional bolus injection (5 mCi administered in 5 mL saline over ˜30 seconds) during rest for 3 additional healthy subjects (1 female/2 males, mean age 29±3). Venous blood samples were collected in all subjects during scanning, then centrifuged to obtain plasma, and aliquoted in a gamma counter that had been precalibrated to the PET scanner to measure the venous activity during the experiment. The fPET-FDG data were binned into 90 one-minute frames. The reconstructed volume was down-sampled to 76 slices with 128×128 voxels (2.5×2.5×2.5 mm^3) with one minute time frames. For bolus FDG comparison studies, data were processed as a single frame (40-70 minutes post injection) and analogously down-sampled. Standardized Uptake Values (SUVs) were normalized to gray matter uptake for each subject.
# FDG in saline solution was administered intravenously at a constant infusion rate of 0.01 ml/s for 90 min to healthy subjects (1 female/2 males, mean age 32±2 years) using a Medrad® Spectra Solaris syringe pump (initial activity=5±0.6 mCi). […]
# [2] = test system: glucose utilization; experiment: fPET-FDG constant infusion with checkerboard visual stimulation; type: in vivo, human; conditions: for mean percent increase in glucose utilization derived from fPET-FDG: fixed-effect group analysis, three subjects
# Protocol: To interrogate dynamic metabolic information, a 90-minute constant FDG infusion paradigm was used (0.01 ml/s, 5 mCi total calculated to the beginning of infusion), during which we periodically presented a conventional visual stimulus consisting of an 8-Hz counterphase flickering “checkerboard” pattern as shown in FIG. 2A. The stimulus was projected on a screen mounted at the end of the magnet bore, and subjects (n=3) viewed the stimulus through a mirror. We used three different stimuli: two full-field checkerboard stimulus periods for a duration of 10 minutes each, and two hemi-field checkerboard stimulus periods (right and left) for a duration of 5 minutes each (FIG. 2A). This design allowed us to confirm that the observed metabolic signal changes were specific to the stimuli, and also that multiple stimuli (four in this case) can be measured dynamically during a single scan of a single subject. In addition to our dynamic analysis, the fPET-FDG data were also binned into 90 one-minute frames using previously published methods (see, Catana et al., J Nucl Med 51, 1431, September, 2010; and Catana et al., J Nucl Med 52, 154, January 2011). During the fPET-FDG scan, functional MR data were simultaneously collected using a Siemens BrainPET scanner. BOLD data were collected prior to and during the first 10 minute full-field checkerboard and the two hemi-field checkerboard stimuli; and ASL data were collected prior to and during the second 10 minute full-field checkerboard stimulus.
# FDG was delivered at a constant rate during our fPET studies. At steady state, the rate of FDG utilization in a given voxel is proportional to the slope of the radioactivity accumulated in that voxel. As shown in Example 1 below, during steady state the slope of the voxelwise FDG uptake from fPET can be represented as: slope=(CMRglu*LC*Cp)/Ca^o where LC is the lumped constant which converts FDG metabolic rate to glucose metabolic rate, Ca^o is a measurement of plasma glucose (see, Reivich et al., Circ Res 44, 127, January 1979; and Phelps et al., Ann Neurol 6, 371, November 1979), and Cp is the plasma radioactivity concentration (which is controlled through constant infusion). The slope is an approximation for (K1k3)/(k2+k3) scaled by Cp and is thus analogous to Ki (the influx rate constant) determined by a linear approximation of a bolus FDG injection by Patlak analysis (see, Patlak et al., J Cereb Blood Flow Metab 3, 1, Mar. 1983; and Lucignani et al., J Nucl Med 34, 360, March 1993). Changes in slope are thus proportional to changes in CMRglu. By taking the derivative of the fPET-FDG uptake time course estimated using pairwise subtraction of the 90 one minute frames to form a relative index of uptake rate, we generated a time series akin to a BOLD fMRI signal to represent change in CMRglu. We then used fMRI software, FSL's (FMRIB Software Library) FEAT (see Jenkinson et al., Neuroimage 62, 782, Aug. 15, 2012) to process the fPET-FDG data using a generalized linear model (GLM) with 3 different explanatory variables (EV): (i) 2 blocks of the 10 minutes full-field checkerboard paradigm (EV1), (ii) a 5 minute block of left hemi-field checkerboard (EV2) and (iii) a 5 minute block of right hemi-field checkerboard (EV3). Confirmation of functional specificity is inherent in our analyses given that both hemispheres of the visual system respond equally to the full-field checkerboard whereas the contralateral hemisphere has a higher response to a hemi-field checkerboard. […]
# [3] = cited from earlier work; for K1 (rate constant, transport from blood to brain) / k2 (rate constant, transport back from brain to blood) / k3 (rate constant, phosphorylation in the brain tissue): two-tissue compartment model (Reivich et al., 1985)
# [4] = test system: cerebral blood flow; experiment: non-human primate hypercapnia experiment with fPET-FDG and ASL CBF; type: in vivo, baboon
# Excerpt: To assess the influence of cerebral blood flow changes on FDG signal we administered inhaled carbon dioxide, a strong vasodilatory stimulus, to two baboons (2 females, ˜10-12 kg) simultaneously with fPET-FDG and arterial spin labeling (ASL) MRI for CBF measurements. The protocol was approved by the Institutional Animal Care and Use Committee. Animals were anesthetized with isoflurane (1%) and mechanically ventilated. Physiological parameters were continuously monitored and maintained within the normal range. All images were acquired on the same 3T Siemens TIM-Trio with a BrainPET insert as the human data, using a custom PET-compatible 8-channel array coil. Similar to the human protocol, ˜5 mCi of FDG was continuously infused intravenously at a rate of 0.01 mL/sec for each study. PET data were stored in list mode and binned into 1-minute frames. Dual echo pseudo-continuous arterial spin labeling (pCASL) data were acquired simultaneously (TR/TE1/TE2=4000/12/30 ms, 2.2×2.2×4 mm) (Wey et al., 2010). During a 50 minute dynamic fPET/fMRI scan, a hypercapnic challenge (7% CO2) was given for 10 minutes between 30 and 40 minutes. All data were motion and slice-time corrected, skull stripped, spatially smoothed and registered to a standard NHP atlas. Percent changes in gray matter CBF were calculated.
# [5] = 10 minute full checkerboard, average of 3 subjects, exponential fit
Compound,"blood radioactivity during the infusion protocol, maximum ([1]; venous plasma blood) [kBq/cc]","blood radioactivity during the infusion protocol, average ([1]; whole blood) [kBq/cc]","tau of the exponential decrease in FDG signal after the end of the activation [2, 5] [min]","tau of the exponential increase in FDG signal after the beginning of the activation [2, 5] [min]",mean percent increase in glucose utilization derived from fPET-FDG ([2]; full-field checkerboard vs baseline) [%],mean percent increase in glucose utilization derived from fPET-FDG ([2]; left hemi-field checkerboard vs baseline) [%],mean percent increase in glucose utilization derived from fPET-FDG ([2]; right hemi-field checkerboard vs baseline) [%],extraction fraction ([3]; brain) [%],"K1 (rate constant, transport from blood to brain) [3] [mL/min]","k2 (rate constant, transport back from brain to blood) [3] [min⁻¹]","k3 (rate constant, phosphorylation in the brain tissue) [3] [min⁻¹]","CBF increase on average ([4]; gray matter, ASL, 10 minutes of hypercapnia (7% CO2), anesthetized baboon) [%]","effect on FDG uptake rate / FDG signal slope ([4]; hypercapnia (7% CO2) between 30 and 40 minutes of 50 minute FDG infusion, baboon)","CBF change at maximum ([4]; hypercapnia stimulus (7% CO2), baboon) [%]"
2-[^18F]-fluoro-2-deoxyglucose [FDG],4,4,5.6,4.9,25,26,28,4,0.1,0.15,0.08,–,–,–
O=C=O [carbon dioxide],–,–,–,–,–,–,–,–,–,–,–,70,did not alter FDG uptake rate; also recorded: did not induce any measurable change,120
OCC1OC(O)CC(O)C1O (centres unmarked) [deoxyglucose],–,–,–,–,–,–,–,–,~0.1,~0.15,~0.08,–,–,–
